Experimental data taken from the supplement of paper PMC7394473.

Key:
Conditions in all cases: 72 h
U2OS [1] = assay: GR50 (concentration giving GR = 0.5)
Description: (§1)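 U2OS cells treated with full dose titrations of drug; live and dead cells counted by STACK microscopy (mKate2 nuclei, SYTOX Green) at 72 h, biological triplicates. GR and FV dose responses were fitted with 4-parameter logistic models (GR lower bound -1). GRADE (0-100) is the rescaled angle of a linear fit of FV versus GR at doses with GR >= 0, giving the percentage of the response due to cell death.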

U2OS [2] = assay: fractional viability (live cells / total cells); higher = less cell death
Description: (§2)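 U2OS::Nuc-mKate2 cells seeded in 96-well plates and treated with eight- to ten-point half-log or log dilutions of drug in the presence of 50 nM SYTOX Green. Live (mKate2+) and dead (SYTOX+) cells were counted by IncuCyte STACK live-cell microscopy at 72 h; biological triplicates. GR is the normalised growth-rate inhibition value (Hafner 2016; 1 = untreated growth, <0 = population shrinking). FV is live/(live+dead) cells, not normalised.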

U2OS [3] = assay: normalized growth rate inhibition value (GR) relative to untreated cells (GR value (dimensionless, 1 = untreated growth)); higher = less growth inhibition
Description: as §2

U2OS [4] = assay: GRmin (fitted minimal GR value at highest effect) (GR value (dimensionless)); higher = less efficacious
Description: as §1

U2OS [5] = assay: drug GRADE (percent of response due to cell death) (% (0-100)); higher = more death-driven response
Description: as §1

SMILES | GR50 (U2OS [1]) | fractional viability (U2OS [2]; 0.00100578 µM) | fractional viability (U2OS [2]; 0.00317827 µM) | fractional viability (U2OS [2]; 0.0100433 µM) | fractional viability (U2OS [2]; 0.0317369 µM) | fractional viability (U2OS [2]; 0.100289 µM) | fractional viability (U2OS [2]; 0.316912 µM) | fractional viability (U2OS [2]; 1.00144 µM) | fractional viability (U2OS [2]; 3.16456 µM) | fractional viability (U2OS [2]; 10 µM) | normalized growth rate inhibition value (U2OS [3]; 0.00100578 µM) | normalized growth rate inhibition value (U2OS [3]; 0.00317827 µM) | normalized growth rate inhibition value (U2OS [3]; 0.0100433 µM) | normalized growth rate inhibition value (U2OS [3]; 0.0317369 µM) | normalized growth rate inhibition value (U2OS [3]; 0.100289 µM) | normalized growth rate inhibition value (U2OS [3]; 0.316912 µM) | normalized growth rate inhibition value (U2OS [3]; 1.00144 µM) | normalized growth rate inhibition value (U2OS [3]; 3.16456 µM) | normalized growth rate inhibition value (U2OS [3]; 10 µM) | GRmin (U2OS [4]) | drug GRADE (U2OS [5]) | fractional viability (U2OS [2]; 0.01 µM) | fractional viability (U2OS [2]; 0.0316 µM) | fractional viability (U2OS [2]; 0.1 µM) | fractional viability (U2OS [2]; 0.316 µM) | fractional viability (U2OS [2]; 1 µM) | fractional viability (U2OS [2]; 3.16 µM) | fractional viability (U2OS [2]; 31.6 µM) | normalized growth rate inhibition value (U2OS [3]; 0.01 µM) | normalized growth rate inhibition value (U2OS [3]; 0.0316 µM) | normalized growth rate inhibition value (U2OS [3]; 0.1 µM) | normalized growth rate inhibition value (U2OS [3]; 0.316 µM) | normalized growth rate inhibition value (U2OS [3]; 1 µM) | normalized growth rate inhibition value (U2OS [3]; 3.16 µM) | normalized growth rate inhibition value (U2OS [3]; 31.6 µM)
COc1cc([C@@H]2c3cc4c(cc3[C@@H](O[C@@H]3O[C@@H]5CO[C@@H](C)O[C@H]5[C@H](O)[C@H]3O)[C@H]3COC(=O)[C@H]23)OCO4)cc(OC)c1O [Etoposide] | 0.0978 µM | 0.99 | 0.988 | 0.993 | 0.989 | 0.975 | 0.952 | 0.96 | 0.922 | 0.628 | 0.934 | 1.02 | 0.895 | 0.785 | 0.524 | 0.11 | -0.0401 | -0.0127 | -0.155 | -0.106 | 8.6 | – | – | – | – | – | – | – | – | – | – | – | – | – | –
CO[C@H]1C[C@@H]2CC[C@@H](C)[C@@](O)(O2)C(=O)C(=O)N2CCCC[C@H]2C(=O)O[C@H]([C@H](C)C[C@@H]2CC[C@@H](OCCO)[C@H](OC)C2)CC(=O)[C@H](C)/C=C(\C)[C@@H](O)[C@@H](OC)C(=O)[C@H](C)C[C@H](C)/C=C/C=C/C=C/1C [Everolimus] | – | 0.994 | 0.992 | 0.991 | 0.994 | 0.993 | 0.994 | 0.989 | 0.99 | 0.984 | 0.653 | 0.758 | 0.721 | 0.653 | 0.738 | 0.79 | 0.598 | 0.524 | 0.515 | -0.334 | 0.964 | – | – | – | – | – | – | – | – | – | – | – | – | – | –
CC1CCc2cc(F)cc3c(=O)c(C(=O)O)cn1c23 (configuration not stated) [Flumequine] | – | – | – | – | – | – | – | – | – | 0.977 | – | – | – | – | – | – | – | – | 1.1 | 1 | – | 0.98 | 0.971 | 0.981 | 0.977 | 0.971 | 0.974 | 0.976 | 0.959 | 1.02 | 0.966 | 0.928 | 0.907 | 0.962 | 0.969
O=C(O)CCNc1cc(N2CCc3ccccc3CC2)nc(-c2ccccn2)n1 [GSKJ1] | – | – | – | – | – | – | – | – | – | 0.975 | – | – | – | – | – | – | – | – | 1.01 | 0.339 | – | 0.979 | 0.981 | 0.98 | 0.976 | 0.985 | 0.974 | 0.974 | 1.03 | 0.985 | 0.962 | 1.06 | 1.02 | 0.996 | 0.83
C=CCc1ccc(O)c(-c2ccc(O)c(CC=C)c2)c1 [Honokiol] | – | – | – | – | – | – | – | – | – | 0.981 | – | – | – | – | – | – | – | – | 0.95 | – | – | 0.978 | 0.974 | 0.978 | 0.983 | 0.978 | 0.979 | 0.969 | 1.04 | 1.07 | 0.96 | 1.03 | 0.897 | 0.981 | 0.774
CC(C)NC[C@@H](C(=O)N1CCN(c2ncnc3c2[C@H](C)C[C@H]3O)CC1)c1ccc(Cl)cc1 [Ipatasertib] | – | 0.99 | 0.986 | 0.986 | 0.983 | 0.986 | 0.988 | 0.987 | 0.976 | 0.947 | 0.9 | 0.946 | 1.14 | 0.981 | 0.885 | 0.945 | 0.88 | 0.824 | 0.548 | – | 6.49 | – | – | – | – | – | – | – | – | – | – | – | – | – | –
CC1(C)CCC(c2ccc(Cl)cc2)=C(CN2CCN(c3ccc(C(=O)NS(=O)(=O)c4ccc(N[C@H](CCN5CCOCC5)CSc5ccccc5)c(S(=O)(=O)C(F)(F)F)c4)cc3)CC2)C1 [Navitoclax] | – | – | – | – | – | – | – | – | – | 0.947 | – | – | – | – | – | – | – | – | 0.841 | 0.866 | – | 0.98 | 0.983 | 0.978 | 0.978 | 0.978 | 0.972 | 0.887 | 0.981 | 1.04 | 0.941 | 1.02 | 0.95 | 0.94 | 0.891
